# Reference: US8524699B2, “Substituted dihydropyrazolones and use thereof as HIF-prolyl-4-hydroxylase inhibitors” (Bayer Intellectual Property GmbH, priority 2006, dated 2013)
# pIC50: −log10 of the molar value. Where a name gives a salt, the structure may show the parent alone.
# Biological target: HIF prolyl hydroxylase
# Assay: Inhibition of the activity of HIF prolyl hydroxylase (VBC complex binding to hydroxylated peptide substrate)
# Assay type: biochemical
# Conditions: cell lysate containing prolyl hydroxylase
# Protocol: Hydroxylated HIF bonds specifically to the von Hippel-Lindau protein-elongin B-elongin C complex (VBC complex). This interaction occurs only if HIF is hydroxylated on a conserved prolyl radical. It is the basis for the biochemical determination of HIF prolyl hydroxylase activity. The test is carried out as described [Oehme F., Jonghaus W., Narouz-Ott L., Huetter J., Flamme I., Anal. Biochem. 330 (1), 74-80 (2004)]:
# A clear 96-well microtiter plate coated with NeutrAvidin HBC (Pierce) is incubated with blocker casein for 30 minutes. The plate is then washed three times with 200 μl each time of wash buffer (50 mM Tris, pH 7.5, 100 mM NaCl, 10% (v/v) blocker casein, 0.05% (v/v) Tween 20) per well. The peptide biotin-DLDLEMLAPYIPMDDDFQL (Eurogentec, 4102 Seraing, Belgium) is added in a concentration of 400 nM in 100 μl wash buffer. This peptide serves as a substrate for the prolyl hydroxylation and is bonded to the microtiter plate. After incubation for 60 minutes, the plate is washed three times with wash buffer, incubated with 1 mM biotin in blocker casein for 30 minutes and then washed again three times with wash buffer.
# To carry out the prolyl hydroxylase reaction, the peptide substrate bonded to the plate is incubated with a cell lysate containing prolyl hydroxylase for 1 to 60 minutes. The reaction takes place in 100 μl reaction buffer (20 mM Tris, pH 7.5, 5 mM KCl, 1.5 mM MgCl2, 1 μM-1 mM 2-oxoglutarate, 10 μM FeSO4, 2 mM ascorbate) at room temperature. The reaction mixture moreover contains various concentrations of the prolyl hydroxylase inhibitor to be tested. The test substance is preferably, but not exclusively, employed at concentrations of between 1 nM and 100 μM. The reaction is stopped by washing the plate three times with wash buffer.
# For quantitative determination of the prolyl hydroxylation, a fusion protein which contains both thioredoxin from E. coli and the VBC complex in 80 μl bonding buffer (50 mM Tris, pH 7.5, 120 mM NaCl) is added. After 15 minutes, 10 μl of a solution of polyclonal anti-thioredoxin antibodies from rabbit in bonding buffer are added. After a further 30 minutes, 10 μl of a solution of anti-rabbit immunoglobulin coupled to horseradish peroxidase in bonding buffer are added. After incubation at room temperature for 30 minutes, the plate is washed three times with wash buffer in order to remove non-bonded VBC complex and antibodies. To determine the amount of bonded VBC complex, the plate is incubated with TMB for 15 minutes. The color reaction is ended by addition of 100 μl 1 M sulfuric acid. The amount of bonded VBC complex is determined by measurement of the optical density at 450 nm. It is proportional to the amount of hydroxylated proline in the peptide substrate.
# Alternatively, a VBC complex coupled to europium (Perkin Elmer) can be used for detection of the prolyl hydroxylation. In this case, the amount of bonded VBC complex is determined by the fluorescence with respect to time. The use of VBC complex labeled with [^35S]-methionine is moreover possible. For this, the radioactively labeled VBC complex can be prepared by in vitro transcription-translation in reticulocyte lysate.
# Representative IC50 values for the embodiment examples are reproduced in the following Table 1: […]
row,Structure (SMILES),pIC50
1,Cc1cc(C)n(-c2cc(-n3[nH]cc(-c4cccnc4)c3=O)ncn2)n1 [Example 3],6.15
2,O=c1c(-c2cccnc2)c[nH]n1-c1nc2ccccc2s1 [Example 6],5.55
3,O=c1c(-c2cccnc2)c[nH]n1-c1nnc(-c2ccc(Cl)cc2)s1 [Example 7],6.06
4,O=c1c(-c2ccc(Cl)nc2)c[nH]n1-c1cc(N2CCOCC2)ncn1 [Example 16],6.32
5,"O=c1c(-c2cccnc2)c[nH]n1-c1cc(N2CCOCC2)ncn1 [Example 18, 2-(6-Morpholin-4-yl-pyrimidin-4-yl)-4-pyridin-3-yl-1,2-dihydro-3H-pyrazol-3-one hydrochloride]",6.74

# Second part, the compound after the results:
row,pIC50,Structure (SMILES)
1,5.57,"O=c1c(-c2cccnc2)c[nH]n1-c1ccc(-c2ccccc2)nn1 [Example 22, 2-(6-Phenylpyridazin-3-yl)-4-pyridin-3-yl-1,2-dihydro-3H-pyrazol-3-one hydrochloride]"
2,5.40,"CN(C)CCOc1cc(-n2[nH]cc(-c3cccnc3)c2=O)ncn1 [Example 26, 2-{6-[2-(Dimethylamino)ethoxy]pyrimidin-4-yl}-4-pyridin-3-yl-1,2-dihydro-3H-pyrazol-3-one hydrochloride]"
3,6.05,"COCCN1CCN(c2cc(-n3[nH]cc(-c4cccnc4)c3=O)ncn2)CC1 [Example 28, 2-{6-[4-(2-Methoxyethyl)piperazin-1-yl]pyrimidin-4-yl}-4-pyridin-3-yl-1,2-dihydro-3H-pyrazol-3-one dihydrochloride]"
4,5.95,"N#Cc1cncc(-c2c[nH]n(-c3cc(N4CCCCC4)ncn3)c2=O)c1 [Example 44, 5-[3-oxo-2-(6-piperidin-1-ylpyrimidin-4-yl)-2,3-dihydro-1H-pyrazol-4-yl]pyridine-3-carbonitrile hydrochloride]"
5,6.03,"O=c1c(-c2cccnc2)c[nH]n1-c1cnccn1 [Example 46, 2-Pyrazin-2-yl-4-pyridin-3-yl-1,2-dihydro-3H-pyrazol-3-one hydrochloride]"
6,5.77,"CCN(CC)CCCCCCNc1cc(-n2[nH]cc(-c3cccnc3)c2=O)ncn1 [Example 55, 2-(6-{[6-(Diethylamino)hexyl]amino}pyrimidin-4-yl)-4-pyridin-3-yl-1,2-dihydro-3H-pyrazol-3-one]"
